For assay [1], the target named is T1, HiBit-BRG1 fusion protein in stable HeLa cell line expressing HiBit-BRG1 and LgBit (Homo sapiens, UniProt P51532).
T1 construct: expressed in transfected cells
Kind of assay: HiBiT-BRG1 cell-based degradation assay (Nano-Glo HiBiT, 24 h). The conditions noted are these: HeLa HiBit-BRG1/LgBit cells; for DC50: read-out: BRMG1 HiBit Degradation IC50; for Dmax: top dose 30 μM, read-out: BRG1 HiBit Degradation Maximum (%). In short, it runs like this:
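Degradation calculated from NanoBiT luminescence relative to DMSO-treated cells (high) and cells given 2 μM known BRM/BRG1 degrader (low). HeLa cells stably expressing HiBiT-BRG1 plus LgBiT were exposed to compound for 24 h before lytic HiBiT detection.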

The target in assay [2] is T2, HiBiT-BRM fusion protein in stable HeLa cell line (Homo sapiens, UniProt P51531).
T2 construct: expressed in transfected cells
T2 sequence (P51531 whole entry, the tested form may be a part): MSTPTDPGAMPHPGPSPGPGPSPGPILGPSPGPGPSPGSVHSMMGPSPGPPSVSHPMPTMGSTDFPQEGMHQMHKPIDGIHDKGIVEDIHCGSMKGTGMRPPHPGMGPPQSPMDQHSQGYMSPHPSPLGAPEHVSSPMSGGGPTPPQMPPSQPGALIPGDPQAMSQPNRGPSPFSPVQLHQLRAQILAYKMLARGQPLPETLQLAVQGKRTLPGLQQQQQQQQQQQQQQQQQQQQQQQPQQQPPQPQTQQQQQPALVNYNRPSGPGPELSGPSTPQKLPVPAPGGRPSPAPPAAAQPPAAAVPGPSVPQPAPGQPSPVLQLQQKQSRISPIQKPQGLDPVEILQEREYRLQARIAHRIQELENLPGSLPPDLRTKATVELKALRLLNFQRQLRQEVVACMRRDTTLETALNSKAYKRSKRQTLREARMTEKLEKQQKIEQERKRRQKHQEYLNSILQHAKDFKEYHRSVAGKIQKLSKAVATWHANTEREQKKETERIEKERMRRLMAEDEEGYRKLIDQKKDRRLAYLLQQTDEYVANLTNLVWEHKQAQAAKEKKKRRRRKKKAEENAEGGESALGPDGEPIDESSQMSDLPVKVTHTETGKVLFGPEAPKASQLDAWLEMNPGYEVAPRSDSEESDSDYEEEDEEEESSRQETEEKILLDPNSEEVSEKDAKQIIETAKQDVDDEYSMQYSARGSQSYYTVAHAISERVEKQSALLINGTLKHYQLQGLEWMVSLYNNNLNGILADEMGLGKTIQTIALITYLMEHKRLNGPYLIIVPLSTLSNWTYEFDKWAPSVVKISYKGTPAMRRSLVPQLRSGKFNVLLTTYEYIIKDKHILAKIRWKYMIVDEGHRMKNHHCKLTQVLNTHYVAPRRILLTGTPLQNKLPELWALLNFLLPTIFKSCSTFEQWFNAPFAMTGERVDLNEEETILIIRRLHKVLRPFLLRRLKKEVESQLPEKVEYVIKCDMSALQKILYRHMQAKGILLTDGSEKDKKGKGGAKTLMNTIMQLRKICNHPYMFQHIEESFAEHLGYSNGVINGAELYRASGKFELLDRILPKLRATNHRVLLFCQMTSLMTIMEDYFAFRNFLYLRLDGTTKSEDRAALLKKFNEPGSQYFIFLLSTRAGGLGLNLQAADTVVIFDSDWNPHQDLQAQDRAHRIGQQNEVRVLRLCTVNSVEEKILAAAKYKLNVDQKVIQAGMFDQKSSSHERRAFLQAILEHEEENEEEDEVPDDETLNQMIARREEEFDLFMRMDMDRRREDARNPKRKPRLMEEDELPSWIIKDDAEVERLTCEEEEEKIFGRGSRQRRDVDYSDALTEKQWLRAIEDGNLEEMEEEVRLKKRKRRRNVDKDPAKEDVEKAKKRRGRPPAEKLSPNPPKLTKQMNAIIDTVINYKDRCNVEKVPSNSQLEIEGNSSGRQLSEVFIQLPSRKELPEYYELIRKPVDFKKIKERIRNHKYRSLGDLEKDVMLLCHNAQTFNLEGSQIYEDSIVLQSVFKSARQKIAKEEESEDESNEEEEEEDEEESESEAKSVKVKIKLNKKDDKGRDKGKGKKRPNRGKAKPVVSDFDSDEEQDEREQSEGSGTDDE
Kind of assay: HiBiT-BRM cell-based degradation assay (Nano-Glo HiBiT Lytic Detection, 24 h). More on the design: DC50: scale not given here. The conditions noted are these: HeLa HiBiT-BRM cells; for DC50: read-out: BRM HiBit Degradation IC50; for BRM HiBit Degradation Maximum (%): top dose 30 μM. In short, it runs like this:
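HeLa stably expressing HiBiT-BRM; 24 h compound exposure, 10-pt 3-fold dilution from 30 μM final, duplicates. Lytic LgBiT complementation, luminescence. % degradation vs DMSO (HC) and 2 μM known BRM/BRG1 degrader (LC).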

T1 sequence (P51532 whole entry, the tested form may be a part): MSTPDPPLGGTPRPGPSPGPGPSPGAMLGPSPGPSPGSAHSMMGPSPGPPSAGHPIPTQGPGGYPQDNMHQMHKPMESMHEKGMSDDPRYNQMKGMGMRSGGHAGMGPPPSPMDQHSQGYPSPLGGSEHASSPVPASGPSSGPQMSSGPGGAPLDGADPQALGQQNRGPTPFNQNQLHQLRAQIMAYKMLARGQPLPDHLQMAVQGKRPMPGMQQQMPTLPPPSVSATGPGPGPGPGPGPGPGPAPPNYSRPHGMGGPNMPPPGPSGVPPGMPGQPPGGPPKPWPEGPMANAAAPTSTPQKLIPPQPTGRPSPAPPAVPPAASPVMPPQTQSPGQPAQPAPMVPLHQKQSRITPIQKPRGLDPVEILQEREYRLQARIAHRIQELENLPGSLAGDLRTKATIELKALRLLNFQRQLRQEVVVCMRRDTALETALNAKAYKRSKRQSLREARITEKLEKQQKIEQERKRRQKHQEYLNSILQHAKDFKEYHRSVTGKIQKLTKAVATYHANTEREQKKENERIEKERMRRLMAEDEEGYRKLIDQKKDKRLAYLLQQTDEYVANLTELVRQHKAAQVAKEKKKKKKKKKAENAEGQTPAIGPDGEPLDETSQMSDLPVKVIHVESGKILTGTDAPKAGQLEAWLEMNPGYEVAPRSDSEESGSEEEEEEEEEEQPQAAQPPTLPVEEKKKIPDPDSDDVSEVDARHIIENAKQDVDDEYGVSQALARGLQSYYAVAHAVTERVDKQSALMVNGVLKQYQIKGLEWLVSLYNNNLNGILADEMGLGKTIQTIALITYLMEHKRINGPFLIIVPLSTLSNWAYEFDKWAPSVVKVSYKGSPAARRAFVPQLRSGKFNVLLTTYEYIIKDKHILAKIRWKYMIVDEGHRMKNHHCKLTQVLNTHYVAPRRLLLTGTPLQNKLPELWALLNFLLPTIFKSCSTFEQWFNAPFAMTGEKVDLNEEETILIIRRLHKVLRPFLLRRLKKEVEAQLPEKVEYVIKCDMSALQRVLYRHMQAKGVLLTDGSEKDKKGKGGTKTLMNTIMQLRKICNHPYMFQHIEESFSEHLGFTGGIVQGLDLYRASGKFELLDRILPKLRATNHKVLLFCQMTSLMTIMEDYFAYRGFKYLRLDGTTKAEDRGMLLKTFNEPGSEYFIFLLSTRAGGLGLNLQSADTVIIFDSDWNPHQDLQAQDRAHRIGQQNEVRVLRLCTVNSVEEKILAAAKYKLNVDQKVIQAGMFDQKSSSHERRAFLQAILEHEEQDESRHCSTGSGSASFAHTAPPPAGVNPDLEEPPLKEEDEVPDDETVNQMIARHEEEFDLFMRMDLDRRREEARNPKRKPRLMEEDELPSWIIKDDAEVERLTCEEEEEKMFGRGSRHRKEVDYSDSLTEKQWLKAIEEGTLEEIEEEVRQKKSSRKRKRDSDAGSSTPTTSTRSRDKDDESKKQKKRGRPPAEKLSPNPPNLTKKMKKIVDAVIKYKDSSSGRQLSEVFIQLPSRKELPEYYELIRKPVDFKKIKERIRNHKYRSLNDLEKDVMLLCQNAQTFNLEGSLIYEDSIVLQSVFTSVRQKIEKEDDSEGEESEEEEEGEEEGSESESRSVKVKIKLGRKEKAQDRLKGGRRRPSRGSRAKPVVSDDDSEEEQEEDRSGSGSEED

For `Cc1ncsc1-c1ccc([C@H](C)NC(=O)[C@@H]2C[C@@H](O)CN2C(=O)[C@H](C(C)C)n2cc(N3CCC4(CCN(c5ccc6cc(-c7ccccc7O)nnc6c5)CC4)CC3)nn2)cc1` [Compound 192, (2S,4R)-4-hydroxy-1-((S)-2-(4-(9-(3-(2-hydroxyphenyl)cinnolin-7-yl)-3,9-diazaspiro [5.5]undecan-3-yl)-1H-1,2,3-triazol-1-yl)-3-methylbutanoyl)-N-((S)-1-(4-(4-methylthiazol-5-yl)phenyl)ethyl)pyrrolidine-2-carboxamide], in assay [1], the DC50 was less than 10 nM and the Dmax was more than 75%. In assay [2], the DC50 is less than 10 nM and the “BRM HiBit Degradation Maximum (%)” value is “A (“A” indicates maximum degradation ≥75%)”.
For `Cc1ncsc1-c1ccc([C@H](C)NC(=O)[C@@H]2C[C@@H](O)CN2C(=O)[C@@H](c2cc(N3CC4(C3)CN(c3cc5nnc(-c6ccccc6O)cc5cc3OC3CC3)C4)no2)C(C)C)cc1` [Compound 253, (2S,4R)-1-((R)-2-(3-(6-(6-cyclopropoxy-3-(2-hydroxyphenyl)cinnolin-7-yl)-2,6-diazaspiro[3.3]heptan-2-yl)isoxazol-5-yl)-3-methylbutanoyl)-4-hydroxy-N-((S)-1-(4-(4-methylthiazol-5-yl)phenyl)ethyl)pyrrolidine-2-carboxamide], in assay [1], the DC50 is less than 10 nM and the Dmax is more than 75%. Also, in assay [2], the DC50 was less than 10 nM and the “BRM HiBit Degradation Maximum (%)” value is “A (“A” indicates maximum degradation ≥75%)”.
As to `Cc1cc(-c2cc([C@H](C(=O)N3C[C@H](O)C[C@H]3C(=O)N[C@@H](C)c3ccc(-c4scnc4C)cc3)C(C)C)on2)cnc1N1CCC(c2ccc3nnc(-c4ccccc4O)cc3c2)CC1` [Compound 64, (2S,4R)-4-hydroxy-1-((R)-2-(3-(6-(4-(3-(2-hydroxyphenyl)cinnolin-6-yl)piperidin-1-yl)-5-methylpyridin-3-yl)isoxazol-5-yl)-3-methylbutanoyl)-N-((S)-1-(4-(4-methylthiazol-5-yl)phenyl)ethyl)pyrrolidine-2-carboxamide], in assay [1], the DC50 is more than 10 nM and the Dmax is more than 50%. For the same compound, in assay [2], the DC50 was less than 10 nM and the “BRM HiBit Degradation Maximum (%)” value was “A (“A” indicates maximum degradation ≥75%)”.
In the same order, the values of `Cc1ncsc1-c1ccc([C@H](C)NC(=O)[C@@H]2C[C@@H](O)CN2C(=O)[C@H](C(C)C)n2cc(N3CC4(CN(c5ccc6nnc(-c7ccccc7O)cc6c5)C4)C3)nn2)cc1` [Compound 172, (2S,4R)-4-hydroxy-1-((S)-2-(4-(6-(3-(2-hydroxyphenyl)cinnolin-6-yl)-2,6-diazaspiro[3.3]heptan-2-yl)-1H-1,2,3-triazol-1-yl)-3-methylbutanoyl)-N-((S)-1-(4-(4-methylthiazol-5-yl)phenyl)ethyl)pyrrolidine-2-carboxamide] are less than 10 nM, more than 50%, less than 10 nM and “A (“A” indicates maximum degradation ≥75%)”.
Take `Cc1ncsc1-c1ccc([C@H](C)NC(=O)[C@@H]2C[C@@H](O)CN2C(=O)[C@H](C(C)C)n2cc(-c3cc4cc(-c5ccccc5O)nnc4cc3C(F)F)nn2)cc1` [Compound 171, (2S,4R)-1-((S)-2-(4-(7-(difluoromethyl)-3-(2-hydroxyphenyl)cinnolin-6-yl)-1H-1,2,3-triazol-1-yl)-3-methylbutanoyl)-4-hydroxy-N-((S)-1-(4-(4-methylthiazol-5-yl)phenyl)ethyl)pyrrolidine-2-carboxamide]: in assay [1], the DC50 is less than 10 nM and the Dmax is more than 75%. Besides, in assay [2], the DC50 was less than 10 nM and the “BRM HiBit Degradation Maximum (%)” value was “A (“A” indicates maximum degradation ≥75%)”.
In the case of `C#Cc1ccc(CNC(=O)[C@@H]2C[C@@H](O)CN2C(=O)[C@H](C(C)C)n2cc(N3CC4(CN(c5ccc6cc(-c7ccccc7O)nnc6c5)C4)C3)nn2)cc1` [Compound 255, (2S,4R)-N-(4-ethynylbenzyl)-4-hydroxy-1-((S)-2-(4-(6-(3-(2-hydroxyphenyl)cinnolin-7-yl)-2,6-diazaspiro[3.3]heptan-2-yl)-1H-1,2,3-triazol-1-yl)-3-methylbutanoyl)pyrrolidine-2-carboxamide], the Dmax in assay [1] was less than 50%. For the same compound, in assay [2], the DC50 is less than 10 nM and the “BRM HiBit Degradation Maximum (%)” value is “A (“A” indicates maximum degradation ≥75%)”.
Take `CC(C)[C@@H](C(=O)N1C[C@H](O)C[C@H]1C(=O)N[C@@H](C)c1ccc(F)cc1)c1cc(-c2ccc3nnc(-c4ccccc4O)cc3c2)no1` [Compound 134, (2S,4R)-N-((S)-1-(4-fluorophenyl)ethyl)-4-hydroxy-1-((R)-2-(3-(3-(2-hydroxyphenyl)cinnolin-6-yl)isoxazol-5-yl)-3-methylbutanoyl)pyrrolidine-2-carboxamide]: in assay [1], the DC50 was more than 10 nM and the Dmax was more than 75%. In addition, in assay [2], the DC50 is less than 10 nM and the “BRM HiBit Degradation Maximum (%)” value is on record as “A (“A” indicates maximum degradation ≥75%)”.
In the same order, the values of `Cc1ncsc1-c1ccc([C@H](C)NC(=O)[C@@H]2C[C@@H](O)CN2C(=O)[C@@H](c2cc(N3CCC(C(=O)N4CC(c5ccc6nnc(-c7ccccc7O)cc6c5)C4)CC3)no2)C(C)C)cc1` [Compound 7, (2S,4R)-4-hydroxy-1-((R)-2-(3-(4-(3-(3-(2-hydroxyphenyl)cinnolin-6-yl)azetidine-1-carbonyl)piperidin-1-yl)isoxazol-5-yl)-3-methylbutanoyl)-N-((S)-1-(4-(4-methylthiazol-5-yl)phenyl)ethyl)pyrrolidine-2-carboxamide] are more than 100 nM, more than 50%, more than 10 nM and “A (“A” indicates maximum degradation ≥75%)”.
Turning to `Cc1ncsc1-c1ccc([C@H](C)NC(=O)[C@@H]2C[C@@H](O)CN2C(=O)[C@@H](c2cc(N3CCN(c4ccc5cc(-c6ccccc6O)nnc5c4)CC3)no2)C(C)C)cc1` [Compound 54, (2S,4R)-4-hydroxy-1-((R)-2-(3-(4-(3-(2-hydroxyphenyl)cinnolin-7-yl)piperazin-1-yl)isoxazol-5-yl)-3-methylbutanoyl)-N-((S)-1-(4-(4-methylthiazol-5-yl)phenyl)ethyl)pyrrolidine-2-carboxamide], the Dmax in assay [1] is less than 50%. Besides, in assay [2], the DC50 is more than 10 nM and the “BRM HiBit Degradation Maximum (%)” value was “B (“B” indicates maximum degradation ≥50%)”.
Taken in the same sequence, the figures for `Cc1ncsc1-c1ccc([C@H](C)NC(=O)[C@@H]2C[C@@H](O)CN2C(=O)[C@H](c2cc(-c3cnc(N4CC(c5cc(Cl)c6cc(-c7ccccc7O)nnc6c5)C4)nc3)no2)C(C)C)cc1` [Compound 35] were less than 50%, more than 100 nM and “B (“B” indicates maximum degradation ≥50%)”.
